Assay results reported in ChEMBL document CHEMBL3227999, “Synthesis and biological properties of N2-substituted spin-labeled analogues of actinomycin D” (J Med Chem, 1979).
Active and inactive are the calls of the source. No cut-off for these calls is given here. Numbered stars: 1 amine (or outer) side, 2 acyl side, 3 side chain; on linkers, the order of the positions; unused ones are H or OH. Bridge positions count the residues as written; N and C are the ends. Square brackets hold non-standard residues; d marks the D form. Peptide text beside a SMILES is read from it. I, II: the chains in the order shown. Actinocin(9to1) = Cc1c2oc3c(C)ccc(C(=O)[*:1])c3nc-2c(C(=O)[*:2])c(N)c1=O; NMeV = CN[C@H](C(=O)O)C(C)C; Sar = CNCC(=O)O

Tests used:
Mus musculus [1] = experiment: Toxicity in mouse P388 cells allografted CDF1 mouse assessed as mortality at 0.4 mg/kg, ip administered on day 1, 5 and 9; type: organism-based; set-up: dose 0.4 mg/kg, route intraperitoneal; conditions: in vivo
Mus musculus [2] = experiment: Toxicity in mouse P388 cells allografted CDF1 mouse assessed as mortality at 0.27 mg/kg, ip administered on day 1, 5 and 9; type: organism-based; set-up: dose 0.27 mg/kg, route intraperitoneal; conditions: in vivo
Mus musculus [3] = experiment: Toxicity in mouse P388 cells allografted CDF1 mouse assessed as weight loss at 0.18 mg/kg, ip administered on day 1, 5 and 9; type: organism-based; set-up: dose 0.18 mg/kg, route intraperitoneal; conditions: in vivo
Calf thymus DNA [4] = experiment: Binding affinity to calf thymus DNA at 1 x 10^-5 M after 30 mins by circular dichroism analysis; type: nucleic-acid assay; conditions: Bos taurus
Calf thymus DNA [5] = experiment: Binding affinity to calf thymus DNA at 1 x 10^-5 M by thermal denaturation assay; type: nucleic-acid assay; conditions: Bos taurus
[6] = target: T1, Bacterial DNA-directed RNA polymerase (Bacteria) (UniProt P0A8V2+P0A7Z4+P0A8T7+P0A800); experiment: Inhibition of Escherichia coli DNA-dependent RNA polymerase at 20 ug/ml using calf thymus DNA as primer; type: protein-complex assay
T1 sequence (P0A7Z4 whole entry partner): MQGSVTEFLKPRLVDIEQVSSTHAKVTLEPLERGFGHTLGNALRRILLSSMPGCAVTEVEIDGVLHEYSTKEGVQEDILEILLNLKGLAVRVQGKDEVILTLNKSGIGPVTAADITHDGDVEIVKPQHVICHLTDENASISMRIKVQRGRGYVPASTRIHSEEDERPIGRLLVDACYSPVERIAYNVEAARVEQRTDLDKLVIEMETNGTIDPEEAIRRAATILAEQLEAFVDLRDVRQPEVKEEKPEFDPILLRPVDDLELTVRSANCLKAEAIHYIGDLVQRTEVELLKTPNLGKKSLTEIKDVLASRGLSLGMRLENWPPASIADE
T1 sequence (P0A800 2-91 partner limits assumed): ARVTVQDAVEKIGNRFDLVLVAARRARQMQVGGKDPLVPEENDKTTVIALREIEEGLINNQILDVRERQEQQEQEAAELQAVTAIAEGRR
T1 sequence (P0A8T7 whole entry partner): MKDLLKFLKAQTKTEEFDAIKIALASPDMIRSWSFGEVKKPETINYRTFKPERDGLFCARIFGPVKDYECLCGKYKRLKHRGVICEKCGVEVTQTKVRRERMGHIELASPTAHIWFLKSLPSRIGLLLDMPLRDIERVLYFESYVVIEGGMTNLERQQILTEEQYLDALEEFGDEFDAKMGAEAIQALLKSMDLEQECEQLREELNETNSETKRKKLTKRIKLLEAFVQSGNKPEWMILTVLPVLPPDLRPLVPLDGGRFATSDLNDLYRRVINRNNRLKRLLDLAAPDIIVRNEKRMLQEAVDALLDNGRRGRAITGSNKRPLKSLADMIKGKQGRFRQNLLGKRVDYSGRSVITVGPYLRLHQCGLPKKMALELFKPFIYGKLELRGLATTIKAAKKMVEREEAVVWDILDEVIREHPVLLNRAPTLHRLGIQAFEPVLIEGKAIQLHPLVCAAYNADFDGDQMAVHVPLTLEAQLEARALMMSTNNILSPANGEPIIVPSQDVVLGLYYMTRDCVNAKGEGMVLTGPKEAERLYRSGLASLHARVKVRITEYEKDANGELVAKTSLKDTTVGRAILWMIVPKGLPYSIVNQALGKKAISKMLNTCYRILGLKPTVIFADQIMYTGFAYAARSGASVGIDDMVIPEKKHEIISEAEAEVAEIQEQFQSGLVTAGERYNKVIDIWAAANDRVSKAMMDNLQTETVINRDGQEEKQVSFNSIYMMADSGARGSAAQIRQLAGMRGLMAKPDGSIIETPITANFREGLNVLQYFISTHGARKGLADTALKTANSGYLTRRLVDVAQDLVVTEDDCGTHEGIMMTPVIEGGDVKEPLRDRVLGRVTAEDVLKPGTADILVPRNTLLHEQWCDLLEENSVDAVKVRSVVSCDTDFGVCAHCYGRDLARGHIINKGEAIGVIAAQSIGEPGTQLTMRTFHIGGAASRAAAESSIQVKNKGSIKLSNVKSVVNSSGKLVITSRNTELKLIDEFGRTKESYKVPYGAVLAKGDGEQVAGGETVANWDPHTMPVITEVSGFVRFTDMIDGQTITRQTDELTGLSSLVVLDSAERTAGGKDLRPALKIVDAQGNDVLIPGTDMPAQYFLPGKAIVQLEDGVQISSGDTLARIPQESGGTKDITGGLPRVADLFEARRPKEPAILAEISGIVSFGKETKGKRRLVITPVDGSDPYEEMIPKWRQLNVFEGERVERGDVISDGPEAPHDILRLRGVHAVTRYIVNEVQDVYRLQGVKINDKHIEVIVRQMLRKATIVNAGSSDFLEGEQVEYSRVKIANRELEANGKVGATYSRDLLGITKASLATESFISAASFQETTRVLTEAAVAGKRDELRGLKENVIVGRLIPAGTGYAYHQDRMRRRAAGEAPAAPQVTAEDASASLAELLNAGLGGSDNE
T1 sequence (P0A8V2 whole entry): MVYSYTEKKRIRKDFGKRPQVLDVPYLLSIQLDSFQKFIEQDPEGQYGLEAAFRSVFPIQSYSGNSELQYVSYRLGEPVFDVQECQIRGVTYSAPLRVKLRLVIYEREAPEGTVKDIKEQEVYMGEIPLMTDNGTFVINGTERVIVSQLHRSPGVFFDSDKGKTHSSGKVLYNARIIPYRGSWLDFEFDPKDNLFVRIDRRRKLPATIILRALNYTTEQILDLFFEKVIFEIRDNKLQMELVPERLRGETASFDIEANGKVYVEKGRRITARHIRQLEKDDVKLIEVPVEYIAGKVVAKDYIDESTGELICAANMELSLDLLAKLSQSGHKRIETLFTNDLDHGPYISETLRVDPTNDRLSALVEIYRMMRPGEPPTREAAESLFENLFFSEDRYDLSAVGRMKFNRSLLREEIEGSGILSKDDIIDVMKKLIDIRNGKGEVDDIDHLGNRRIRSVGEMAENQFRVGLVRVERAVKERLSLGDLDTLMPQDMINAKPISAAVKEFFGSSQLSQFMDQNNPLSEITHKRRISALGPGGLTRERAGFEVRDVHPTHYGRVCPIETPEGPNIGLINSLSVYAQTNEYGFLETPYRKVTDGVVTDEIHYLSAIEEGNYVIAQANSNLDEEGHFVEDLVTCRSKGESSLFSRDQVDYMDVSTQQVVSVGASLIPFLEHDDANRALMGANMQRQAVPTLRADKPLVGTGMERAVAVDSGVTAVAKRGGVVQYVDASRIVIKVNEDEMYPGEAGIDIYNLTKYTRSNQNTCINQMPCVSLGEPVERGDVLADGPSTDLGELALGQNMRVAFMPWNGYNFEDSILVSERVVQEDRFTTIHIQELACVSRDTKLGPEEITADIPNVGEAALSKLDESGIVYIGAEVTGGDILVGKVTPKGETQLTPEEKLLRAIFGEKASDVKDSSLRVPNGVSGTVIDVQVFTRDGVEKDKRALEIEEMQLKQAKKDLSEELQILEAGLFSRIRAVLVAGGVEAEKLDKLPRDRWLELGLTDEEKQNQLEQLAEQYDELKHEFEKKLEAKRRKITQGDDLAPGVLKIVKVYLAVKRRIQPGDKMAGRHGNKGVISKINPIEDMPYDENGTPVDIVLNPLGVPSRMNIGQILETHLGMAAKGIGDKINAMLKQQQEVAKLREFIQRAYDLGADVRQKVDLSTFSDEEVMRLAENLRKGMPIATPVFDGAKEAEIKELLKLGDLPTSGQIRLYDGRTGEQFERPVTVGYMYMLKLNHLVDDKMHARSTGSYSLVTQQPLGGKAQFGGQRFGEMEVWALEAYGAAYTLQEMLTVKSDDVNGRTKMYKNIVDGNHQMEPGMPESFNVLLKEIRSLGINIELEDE

[7] = target: T1, Bacterial DNA-directed RNA polymerase (Bacteria); experiment: Inhibition of Escherichia coli DNA-dependent RNA polymerase at 20 ug/ml using Micrococcus luteus DNA as primer; type: protein-complex assay
[8] = target: T1, Bacterial DNA-directed RNA polymerase (Bacteria); experiment: Inhibition of Escherichia coli DNA-dependent RNA polymerase at 10 ug/ml using calf thymus DNA as primer; type: protein-complex assay
[9] = target: T1, Bacterial DNA-directed RNA polymerase (Bacteria); experiment: Inhibition of Escherichia coli DNA-dependent RNA polymerase at 10 ug/ml using Micrococcus luteus DNA as primer; type: protein-complex assay
[10] = target: T1, Bacterial DNA-directed RNA polymerase (Bacteria); experiment: Inhibition of Escherichia coli DNA-dependent RNA polymerase at 5 ug/ml using calf thymus DNA as primer; type: protein-complex assay
[11] = target: T1, Bacterial DNA-directed RNA polymerase (Bacteria); experiment: Inhibition of Escherichia coli DNA-dependent RNA polymerase at 5 ug/ml using Micrococcus luteus DNA as primer; type: protein-complex assay
[12] = target: T1, Bacterial DNA-directed RNA polymerase (Bacteria); experiment: Inhibition of Escherichia coli DNA-dependent RNA polymerase at 2.5 ug/ml using calf thymus DNA as primer; type: protein-complex assay
[13] = target: T1, Bacterial DNA-directed RNA polymerase (Bacteria); experiment: Inhibition of Escherichia coli DNA-dependent RNA polymerase at 2.5 ug/ml using Micrococcus luteus DNA as primer; type: protein-complex assay
[14] = target: T1, Bacterial DNA-directed RNA polymerase (Bacteria); experiment: Inhibition of Escherichia coli DNA-dependent RNA polymerase at 1 ug/ml using calf thymus DNA as primer; type: protein-complex assay
[15] = target: T1, Bacterial DNA-directed RNA polymerase (Bacteria); experiment: Inhibition of Escherichia coli DNA-dependent RNA polymerase at 1 ug/ml using Micrococcus luteus DNA as primer; type: protein-complex assay
[16] = target: T1, Bacterial DNA-directed RNA polymerase (Bacteria); experiment: Inhibition of Escherichia coli DNA-dependent RNA polymerase at 0.5 ug/ml using calf thymus DNA as primer; type: protein-complex assay
[17] = target: T1, Bacterial DNA-directed RNA polymerase (Bacteria); experiment: Inhibition of Escherichia coli DNA-dependent RNA polymerase at 0.5 ug/ml using Micrococcus luteus DNA as primer; type: protein-complex assay
[18] = target: T1, Bacterial DNA-directed RNA polymerase (Bacteria); experiment: Inhibition of Escherichia coli DNA-dependent RNA polymerase at 0.25 ug/ml using calf thymus DNA as primer; type: protein-complex assay
[19] = target: T1, Bacterial DNA-directed RNA polymerase (Bacteria); experiment: Inhibition of Escherichia coli DNA-dependent RNA polymerase at 0.25 ug/ml using Micrococcus luteus DNA as primer; type: protein-complex assay
[20] = target: T1, Bacterial DNA-directed RNA polymerase (Bacteria); experiment: Inhibition of Escherichia coli DNA-dependent RNA polymerase at 0.1 ug/ml using calf thymus DNA as primer; type: protein-complex assay
[21] = target: T1, Bacterial DNA-directed RNA polymerase (Bacteria); experiment: Inhibition of Escherichia coli DNA-dependent RNA polymerase at 0.1 ug/ml using Micrococcus luteus DNA as primer; type: protein-complex assay
[22] = target: T1, Bacterial DNA-directed RNA polymerase (Bacteria); experiment: Inhibition of Escherichia coli DNA-dependent RNA polymerase at 0.05 ug/ml using calf thymus DNA as primer; type: protein-complex assay
[23] = target: T1, Bacterial DNA-directed RNA polymerase (Bacteria); experiment: Inhibition of Escherichia coli DNA-dependent RNA polymerase at 0.05 ug/ml using Micrococcus luteus DNA as primer; type: protein-complex assay
[24] = target: Bacterial DNA-directed RNA polymerase (Bacteria, UniProt P0A7Z4+P0A800+P0A8T7+P0A8V2); experiment: Inhibition of Escherichia coli DNA-dependent RNA polymerase; type: protein-complex assay
L1210 [25] = experiment: Cytotoxicity against mouse L1210 cells at 10 ug/ml after 48 hrs; type: functional; conditions: L1210, 48 h
L1210 [26] = experiment: Cytotoxicity against mouse L1210 cells at 5 ug/ml after 48 hrs; type: functional; conditions: L1210, 48 h
L1210 [27] = experiment: Cytotoxicity against mouse L1210 cells at 1 ug/ml after 48 hrs; type: functional; conditions: L1210, 48 h
L1210 [28] = experiment: Cytotoxicity against mouse L1210 cells at 0.5 ug/ml after 48 hrs; type: functional; conditions: L1210, 48 h
L1210 [29] = experiment: Cytotoxicity against mouse L1210 cells at 0.1 ug/ml after 48 hrs; type: functional; conditions: L1210, 48 h
L1210 [30] = experiment: Cytotoxicity against mouse L1210 cells at 0.05 ug/ml after 48 hrs; type: functional; conditions: L1210, 48 h
L1210 [31] = experiment: Cytotoxicity against mouse L1210 cells at 0.01 ug/ml after 48 hrs; type: functional; conditions: L1210, 48 h
L1210 [32] = experiment: Cytotoxicity against mouse L1210 cells at 0.001 ug/ml after 48 hrs; type: functional; conditions: L1210, 48 h
P388 [33] = experiment: Antitumor activity against mouse P388 cells allografted in CDF1 mouse assessed as survival at 0.6 mg/kg, ip administered on day 1, 5 and 9; type: functional; conditions: route intraperitoneal
P388 [34] = experiment: Antitumor activity against mouse P388 cells allografted in CDF1 mouse assessed as survival at 0.4 mg/kg, ip administered on day 1, 5 and 9; type: functional; conditions: route intraperitoneal
P388 [35] = experiment: Antitumor activity against mouse P388 cells allografted in CDF1 mouse assessed as survival at 0.27 mg/kg, ip administered on day 1, 5 and 9; type: functional; conditions: route intraperitoneal
P388 [36] = experiment: Antitumor activity against mouse P388 cells allografted in CDF1 mouse assessed as survival at 0.18 mg/kg, ip administered on day 1, 5 and 9; type: functional; conditions: route intraperitoneal
P388 [37] = experiment: Antitumor activity against mouse P388 cells allografted in CDF1 mouse assessed as survival at 0.12 mg/kg, ip administered on day 1, 5 and 9; type: functional; conditions: route intraperitoneal
P388 [38] = experiment: Antitumor activity against mouse P388 cells allografted in CDF1 mouse assessed as survival at 0.08 mg/kg, ip administered on day 1, 5 and 9; type: functional; conditions: route intraperitoneal
Mus musculus [39] = experiment: Toxicity in mouse P388 cells allografted CDF1 mouse assessed as mortality at 0.6 mg/kg, ip administered on day 1, 5 and 9; type: organism-based; set-up: dose 0.6 mg/kg, route intraperitoneal; conditions: in vivo

With Cc1c2oc3c(C)ccc(C(=O)N[C@@H]4C(=O)N[C@H](C(C)C)C(=O)N5CCC[C@H]5C(=O)N(C)CC(=O)N(C)[C@@H](C(C)C)C(=O)O[C@@H]4C)c3nc-2c(C(=O)N[C@@H]2C(=O)N[C@H](C(C)C)C(=O)N3CCC[C@H]3C(=O)N(C)CC(=O)N(C)[C@@H](C(C)C)C(=O)O[C@@H]2C)c(N)c1=O [DACTINOMYCIN] (I: T[dV]P[Sar][NMeV] / II: T[dV]P[Sar][NMeV]; ester I:1-I:C, II:1-II:C; linker I:N-II:N via Actinocin(9to1)) the Activity (Mus musculus [1]) was “Toxic”, the Activity (Mus musculus [2]) was “Toxic” and the Activity (Mus musculus [3]) was “Toxic”. The Activity (Calf thymus DNA [4]) was “Active”, the ΔTm (Calf thymus DNA [5]) was 8.7 °C and the inhibition [6] was 100%. It also gave an inhibition [7] of 99%, an inhibition [8] of 96% and an inhibition [9] of 99%. It also gave an inhibition [10] of 93%, an inhibition [11] of 95% and an inhibition [12] of 89%. It also gave an inhibition [13] of 92%, an inhibition [14] of 79% and an inhibition [15] of 72%. For the same molecule, the inhibition [16] was 61%, the inhibition [17] was 54% and the inhibition [18] was 62%. The inhibition [19] was 44%, the inhibition [20] was 30% and the inhibition [21] was 16%. It also gave an inhibition [22] of 17%, an inhibition [23] of 7% and an IC50 [24] of 159 nM. It also gave an inhibition at 10 µg/mL (L1210 [25]) of 98%, an inhibition at 5 µg/mL (L1210 [26]) of 99% and an inhibition at 1 µg/mL (L1210 [27]) of 97%. It also gave an inhibition at 0.5 µg/mL (L1210 [28]) of 99%, an inhibition at 0.1 µg/mL (L1210 [29]) of 78% and an inhibition at 0.05 µg/mL (L1210 [30]) of 78%. For the same molecule, the inhibition at 0.01 µg/mL (L1210 [31]) was 57%, the inhibition at 0.001 µg/mL (L1210 [32]) was 51% and the Survival (P388 [33]) was 5 days. The T/C (P388 [33]) was 48%, the Survival (P388 [34]) was 8 days and the T/C (P388 [34]) was 76%. For the same molecule, the Survival (P388 [35]) was 10 days, the T/C (P388 [35]) was 95% and the Survival (P388 [36]) was 18 days. It also gave a T/C (P388 [36]) of 171%, a Survival (P388 [37]) of 19 days and a T/C (P388 [37]) of 181%. The Survival (P388 [38]) was 15 days, the T/C (P388 [38]) was 143% and the Activity (Mus musculus [39]) was “Toxic”.
